The results in this text go back to publication PMC12019328, “Discovery of an ApoE4-targeted small-molecule SirT1 enhancer for the treatment of Alzheimer’s disease” (Scientific Reports, 2025).

Series [1] in a line: In vivo pharmacokinetic analysis, brain levels after oral gavage. Further details: species or system C57BL/6J mice. As to conditions: for brain levels: single time point one hour, oral gavage 30 mg/Kg, n = 1. The method, then: […] One hour later, mice were euthanized by pentobarbital over-anesthesia and trans-cardial collection of blood for isolation of plasma by centrifugation at 10,000 x g for 10 min at 4 °C. Brain tissue was collected for analysis, frozen on dry ice and stored at -80 °C before analysis.
For LC/MS/MS analysis, tissue samples were homogenized in a bead beater using 5 volumes of ice-cold 80% acetonitrile (1/5; mg of tissue/ µL of 80% ACN). Solutions were clarified by centrifugation (16,000 x g, 5 min) and the supernatants were transferred to new tubes and lyophilized. Samples were reconstituted in 100 µL of 50/50/0.1 (water/acetonitrile/formic acid) before analysis via liquid chromatography-tandem mass spectrometry.
A 6460 triple quadrupole mass spectrometer (Agilent Technologies) coupled to a 1290 Infinity HPLC system (Agilent Technologies) with a Phenomenex analytical column (Kinetex 1.7 μm C18 100 Å 100 × 2.1 mm) was used for HPLC. The HPLC method utilized a mixture of solvent A (99.9/1 water/formic acid) and solvent B (99.9/1 acetonitrile/formic acid) and a gradient was used for the elution of the compounds (min/%B: 0/20, 3/20, 19/99, 20/99, 21/20, 30/20).
An internal standard (IS; Reserpine) was added to every sample to account for compound loss during sample processing. Standards were made in drug naïve brain and plasma with increasing amounts of DDL-214- (S1,S2: 0.1 pmol/ S3,S4: 1 pmol/ S5,S6: 10 pmol/ S7,S8: 100 pmol/ S9,S10: 1000 pmol). The standard curve was made by plotting the amount of each compound per standard vs. the ratio of measured chromatographic peak areas corresponding to DDL-214 (DDL-214 -/Reserpine). The trendline equation was then used to calculate the absolute concentrations of DDL-214/-218/-219 in brain tissue and plasma.

For series [2], the system named is SirT1 mRNA in Kelly cells. The series can be described thus: SirT1 mRNA in Kelly neuroblastoma cells. Format: cell-based, human. To be noted: 5 µM, 24 h, vs DMSO control. The method, then: Human neuroblastoma ‘Kelly’ cells (genotype APOE3/APOE4) were plated in 96-well plates at 50K cells per well and were grown overnight in RPMI 1640 supplemented with 2 mM Glutamine, 10% FBS and 1% Pen-Strep. Cells were treated with 5 µM DDL-214, -218, or -219; or DMSO vehicle (n = 8 per compound). Twenty-four hours later, medium was removed, cells washed and lysed as described above for N2a-E4 cells.
Total RNA was isolated from cells or brain tissue (Qiagen RNEasy kit). Total RNA (0.5–1.0 µg) mRNA was then converted to cDNA (SuperScript™ III First-Strand Synthesis SuperMix kit; Thermo Fisher), and gene mRNA levels were measured using a gene-specific qRT-PCR Taqman assays (Thermo Fisher). Gene mRNA levels were normalized to GAPDH mRNA levels measured either in the same cDNA sample or in the same qPCR reaction using multiplexing of gene-of-interest/VIC and GAPDH/FAM, normalized by the delta-delta-Ct method.

The test system of series [3] is SirT1 protein in N2a-E4 cells. The series can be described thus: SirT1 protein levels in N2a-E4 cells (AlphaLISA). As to conditions: N2a-E4 cells, 5 µM, 24 h, vs DMSO control. Format: cell-based, murine. The method, then:
Relative SirT1 mRNA and protein enhancement by racemate DDL-214 and enantiomers DDL-218 and − 219 was determined in murine neuroblastoma cells stably transfected with ApoE4 (N2a-E4)[25]. All test compounds in DMSO were prepared at 2x the final concentration in DMEM supplemented with 10% fetal bovine serum (FBS) and 1% pen-strep (PS) and 50 µL of each loaded into individual wells of a 96-well plate. Previously cultured N2a-E4 were then trypsinized, harvested, centrifuged, and counted; then 50 µL of cell suspension adjusted to 400 cells/µL was added to each well. The plate was then incubated at 37 °C, 5% CO2 for 48 h. Cells were treated with DDL-214, DDL-218, or DDL-219 at 5 µM final then incubated for 24 h. After incubation, the cells were lysed with 50 µL of ice-cold lysis buffer (0.4% SDS, 3.5% Triton X-100, 0.02% sodium deoxycholate, 28 mM TRIS pH 8) complemented with 1X final Halt™ Protease and Phosphatase Inhibitor Cocktail (Thermo Fisher catalog # 78442), placed on ice for 10 min and at -80 °C, followed by 3 freeze/thaw cycles.
An AlphaLISA comprising streptavidin donor beads (Revvity catalog # 6760002 S), biotinylated anti-SirT1 N-terminal antibody (monoclonal 19A7AB4, Abcam catalog # ab110304), and acceptor beads (Revvity catalog # 6772001) conjugated to the anti-SirT1 C-terminal antibody (monoclonal 1F3, Abcam catalog # ab104833) was used to determine SirT1 protein levels. […] The plates were read using an Envision plate reader.
Figure S3B. […] Compound treatment was done at 5 and 50 µM. SirT1 levels were measured by AlphaLISA followed and normalized to protein […]
Brain tissue was homogenized in PBS (pH 7.4) (1: 3 weight(mg)/volume(µL)) and the protein concentration of was determined using the Micro BCA™ Protein Assay Kit (Thermo Fisher Scientific, Cat#23235). […]
The % of the unbound drug (fu,bound) was calculated using the following equation: fu,bound = [normalized peak area in buffer side / normalized peak area in brain side] x 100 Liver Microsome Stability [t1/2 (min)] […]
(In general: Bead proximity is the source of the signal in Alpha formats.)

The nature of series [4]: Observation of mice behavior in the PK study. To be noted: oral gavage 10 or 30 mg/Kg. Format: in vivo. The method, then: C57BL/6J mice were administered DDL-214, -218, or -219 (n = 3 per compound) by oral gavage at a dose of 30 mg/kg in a volume of 5 mL/Kg based on mouse weight. One hour later, mice were euthanized by pentobarbital over-anesthesia and trans-cardial collection of blood for isolation of plasma by centrifugation at 10,000 x g for 10 min at 4 °C. Brain tissue was collected for analysis, frozen on dry ice and stored at -80 °C before analysis.

Molecules are shown by their SMILES. “And” between values parts separate entries of the source, which are not always exact repeats. Identical values can stand only once.

With `CC(N)C(=O)OC(C)(C)Cc1ccncc1` (centres unmarked) [DDL-214], the “brain Cmax” value in series [1] (oral 30 mg/Kg, time course study, 30 mg/kg) was ~ 9400 ng/g and 42.3 µM; in series [1] (oral gavage 10 mg/Kg, wildtype mouse, at one hour, 10 mg/kg) it was 1270 ng/g and 5.7 µM. The brain levels in series [1] (30 mg/kg) was ~ 3000 ng/g and 13.5 µM. For the same compound, in series [2], the “SirT1 mRNA” value was “higher than DMSO control, but the difference was not significant”. In addition, the SirT1 protein levels result in series [3] was “increased SirT1 protein levels”. In series [4], the “changes in mice behavior indicative of drug-induced toxicity” value is on record as “No notable changes in mice behavior”.
As to `CC(N)C(=O)OC(C)(C)Cc1ccncc1` (centres unmarked) [DDL-219], in series [1] (30 mg/kg), the brain levels is ~ 6500 ng/g and 29.2 µM. The “changes in mice behavior indicative of drug-induced toxicity” value in series [4] was “No notable changes in mice behavior”.
